Source: patent US20070155713A1, “Nitrogen-containing heterocyclic compounds and use thereof” (priority 2003, published 2007)
Where a name gives a salt, the structure may show the parent alone.

Biological target: T1, human CCR5 (Homo sapiens, UniProt P51681)
T1 construct: expressed in transfected cells; host or cells: CHO-dhfr(-)
Assay: Inhibition test on the binding of RANTES to CCR5 (RANTES-induced transient increase of Ca ion) in CCR5/CHO cells
Assay type: cell-based
Conditions: human CCR5 stably over-expressing CHO cell; recombinant human RANTES 10 nM; intracellular Ca2+ transient increase (Fura-2AM)
Experimental: (1) Isolation of Human CCR5 Gene Human placental cDNA was prepared using Marathon cDNA amplification kit (Clontech). PCR primers hCCR5Xbal-F1: Using the human placental cDNA as the template and using Ex Taq (Takara), PCR reaction (2 minutes at 95° C. {cube root}(30 seconds at 95° C., 45 seconds at 60° C., 1 minute at 72° C.)×35 times) was carried out. The thus amplified PCR product was subjected to a 1% agarose gel electrophoresis, purified using QIAquick Gel Extraction Kit (QUIAGEN) and then digested with a restriction enzyme XbaI. The digested fragments were ligated to an expression vector pEF-BOS-bsr using DNA Ligation Kit Ver. 2 (Takara) and transformed into Escherichia coli DH5α. By preparing the resulting plasmid pEF-BOS-bsr/hCCR5, its DNA sequence was verified. CHO-dhfr(−) was cultured using Ham's F-12 (containing fetal bovine serum (10%), penicillin (50 U/ml) and streptomycin ([…])). […] Transient increase in the intracellular Ca^2+ concentration induced by the human RANTES was measured using a Ca^2+ detector for 96 well use (Hamamatsu Photonics), and inhibition ratio (%) of the test compound was calculated by the following calculation formula. • Inhibition ratio=(Ec−Ea)/Ec×100 • Ec: measured value of Ca^2+ transient increase by RANTES • Ea: measured value of Ca^2+ transient increase by RANTES when a test compound was added.

T1 sequence (P51681 whole entry): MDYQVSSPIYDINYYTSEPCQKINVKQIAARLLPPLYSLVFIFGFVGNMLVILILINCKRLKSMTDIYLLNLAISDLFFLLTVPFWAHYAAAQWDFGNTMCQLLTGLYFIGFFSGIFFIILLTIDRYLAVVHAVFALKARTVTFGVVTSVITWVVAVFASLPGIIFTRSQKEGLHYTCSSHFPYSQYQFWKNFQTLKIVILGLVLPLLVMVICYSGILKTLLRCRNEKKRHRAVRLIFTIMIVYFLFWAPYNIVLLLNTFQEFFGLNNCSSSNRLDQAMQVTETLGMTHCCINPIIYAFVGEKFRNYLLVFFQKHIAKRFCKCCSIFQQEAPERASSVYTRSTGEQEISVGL

IC50: 760 nM
SMILES: CCCCN1C(=O)[C@H](CC2CCCCC2)NC(=O)C12CCN(Cc1ccccc1)CC2C (stereo partly drawn) [Example 1, (3S)-9-benzyl-1-butyl-3-(cyclohexylmethyl)-7-methyl-1,4,9-triazaspiro[5.5]undecane-2,5-dione hydrochloride]
